Reference: patent US11534457B2, “Use of dextran sulfate” (priority 2017, dated 2022)

Assays:
[1] = system: MBP expression in human Schwann cells; experiment: Myelin basic protein (MBP) immunostaining; type: cell-based; conditions: 48 h
Procedure: Neurons were cultured as 40,000 cells per well and Schwann cells 3,000 cells per. Cells were treated after 24 hours. The number of cells per well depended on the growth phenotype, proliferative capacity, etc.
Schwann cells growth medium was prepared by adding 10% of fetal bovine serum (FBS, PAA) to high-glucose DMEM and pre-warmed to 37° C. Cells were thawed in a 37° C. water bath for no longer than 2 min. Cells were gently transferred to a tube containing 10 ml of medium and centrifuged at 200 RCF for 5 min. Pellet was resuspended in 5 ml of medium and cells were counted with the Cellometer. 3,000 cells per well were seeded in previously coated 96-well plates. Cells were incubated at 37° C. with 5% CO2. Cells were allowed to settle for 24 hours before drug treatment.
LMW-DS was prepared in the culture media of choice for each cell line and added to the respective wells in the doses 0.01 and 0.1 mg/ml. For cell survival assays cells were analyzed after 24 and 48 hours in eight identical wells/dose/time point. Differentiation and protein expression assay was analyzed after 48 hours, also in octuplicates.
Cells were fixated in the wells. […]
The Acumen cytometer allows the direct cytometric analysis of attached cells without prior detachment. […] The protein content of the cells can also be directly measured and expressed as either ‘total protein content’ or ‘mean protein content’.

[2] = system: Mouse motor neurons (Aruna); experiment: Gene expression array and pathway analysis, motor neurons; type: cell-based
Procedure: For each cell line, n=8×25 cm^2 culture flasks were set up. Two flasks were harvested for each cell type on the day of treatment (24 hours after seeding). This represents the Day0 time point. From the remaining flasks, three flasks were treated with Control Medium and three were treated with Culture Medium (CM) containing LMW-DS to give a final concentration of 0.01 mg/ml. Cells from the treated flasks were collected after 48 hours. Therefore the collected data represent (a) untreated cells (Day0 Controls and Day2 Controls) and (b) cells treated with LMW-DS for 48 hours (Day2 LMW-DS treated).
25 cm^2 flasks were coated by adding 2 ml per flask of a solution of 50 μg/ml poly-d-lysine in Hank's balanced salt solution (HBSS) and incubating overnight at 37° C. in the dark. Flasks were washed with cell culture water and air-dried for 30 min in the dark. Flasks were coated by adding 1 ml per flask of a solution of 25 μg/ml laminin in phosphate-buffered saline (PBS) and incubating for 2 hour at 37° C. in the dark. The laminin flasks were washed with PBS three times before plating cells.
The culture medium was prepared according to Table 5.
Medium (see Table 5) was pre-warmed to 37° C. Cells were thawed in a 37° C. water bath for no longer than 2 min. 9 ml of media was gently added drop-wise. The cell suspension was mixed by inverting the tube carefully twice. The cells were counted with a Cellometer. The cells were centrifuged for 5 minutes at 200×g. Supernatant was removed (to the last 0.5 ml) and cells were gently resuspended by trituration. The cells from the 8 vials were mixed and distributed equally into the previously coated 25 cm^2 flasks (n=8). Cells were incubated at 37° C. with 5% CO2 for 24 hours before treatment.
LMW-DS was provided at a stock concentration of 20 mg/ml and was kept in a temperature monitored refrigerator at 4° C. A fresh […]LMW-DS stock (1.0 mg/ml) was prepared in sterile DMEM-F12. The concentrated drug stock was sterile filtered and added to the respective culture media (19.6 ml CM and 0.4 ml LMW-DS stock solution). The Control was made using 19.6 ml CM and 0.4 ml of DMEM-F12. LMW-DS and CM were added to the respective flasks (5 ml each) to reach the 0.01 mg/ml concentration of LMW-DS in each dish with a total of 10 ml CM each.
CM was aspirated into a clean and labelled 15 ml Falcon tube. The flasks (without culture medium) were placed into the −80° C. freezer for 30 minutes. The CM in the Falcon tubes were spun at 3000×g for 5 minutes. Supernatant was removed and the small pellet was re-suspended in 2.5 ml Trizol:Water (4:1) solution at room temperature (RT, […]).
Two aliquots of 1 ml lysate was removed from each sample and 200 μl of chloroform was added to each (0.2 ml of chloroform per 1 ml of TRIzol Reagent used during the cell lysis step) and the tube was shaken vigorously. Samples were stored at RT for 2-3 minutes and subsequently centrifuged at 12,000×g for 15 minutes at 4° C.
The expression data were downloaded into separate files for each cell line. The ‘Background corrected’ expression is the data from the “gProcessedSignal” of the arrays that is the result of the background signal extracted from the actual signal of the relevant probe. This is the most often used variable in array analysis. The background corrected signal was log 2 transformed for all samples for statistical analysis. To reduce the false discovery rate in the samples, the signals that were below ‘expression level’ were removed. The ‘below expression’ level was set at 5 for the log 2 transformed expression values.
Based on the expression pattern of the Control probes on each array it was decided to carry out Median Centering for all arrays before analysis to reduce the variability of the results. […]

low molecular weight dextran sulfate [LMW-DS]
MBP expression ([1]; 0.01 and 0.1 mg/ml): significantly increased | size of MBP-positive cells vs control [1]: larger | HtrA2 ([2]; 0.01 mg/ml, 48 h): inhibition | amyloid-β production ([2]; 0.01 mg/ml, 48 h): preventing amyloid-β production | apoptosis pathway (F in FIG. 18) ([2]; 0.01 mg/ml, 48 h): preventing and inhibiting apoptosis | cellular attachment from expression patterns (neurons) ([2]; 0.01 mg/ml, 48 h): significant inhibition of cellular attachment | fatty acid oxidation ([2]; 0.01 mg/ml, 48 h): inhibiting fatty acid oxidation | inhibition of glutamate production at baseline ([2]; 0.01 mg/ml, 48 h): not affected | level of H2O2 ([2]; 0.01 mg/ml, 48 h): reduced | number of genes differentially expressed, D0 control to the D2 LMW-DS treated samples (second statement) ([2]; 0.01 mg/ml, 48 h): 425 genes | number of genes differentially expressed, D0 control vs D2 LMW-DS treated ([2]; 0.01 mg/ml, 48 h): 315 genes | number of genes: abolished nutrient effect / no effect ([2]; 0.01 mg/ml, 48 h): 177 | number of genes: abolished nutrient effect / significant downregulation ([2]; 0.01 mg/ml, 48 h): 47 | number of genes: abolished nutrient effect / significant upregulation ([2]; 0.01 mg/ml, 48 h): 40 | number of genes: abolished nutrient effect / total ([2]; 0.01 mg/ml, 48 h): 264 | number of genes: enhanced response to nutrients / significant downregulation ([2]; 0.01 mg/ml, 48 h): 36 | number of genes: enhanced response to nutrients / significant upregulation ([2]; 0.01 mg/ml, 48 h): 103 | number of genes: enhanced response to nutrients / total ([2]; 0.01 mg/ml, 48 h): 139 | number of genes: new effect induced by LMW-DS / no effect ([2]; 0.01 mg/ml, 48 h): 108 | number of genes: new effect induced by LMW-DS / significant downregulation ([2]; 0.01 mg/ml, 48 h): 375 | number of genes: new effect induced by LMW-DS / significant upregulation ([2]; 0.01 mg/ml, 48 h): 71 | number of genes: new effect induced by LMW-DS / total ([2]; 0.01 mg/ml, 48 h): 554 | number of genes: not different from control / significant downregulation ([2]; 0.01 mg/ml, 48 h): 104 | number of genes: not different from control / significant upregulation ([2]; 0.01 mg/ml, 48 h): 75 | number of genes: not different from control / total ([2]; 0.01 mg/ml, 48 h): 179 | number of genes: total / no effect ([2]; 0.01 mg/ml, 48 h): 285 | number of genes: total / significant downregulation ([2]; 0.01 mg/ml, 48 h): 562 | number of genes: total / significant upregulation ([2]; 0.01 mg/ml, 48 h): 289 | number of genes: total / total ([2]; 0.01 mg/ml, 48 h): 1136 | upstream regulator AGT: activation z-score ([2]; D0 to LMW-DS treatment): 2.631 | upstream regulator AGT: predicted activation state relative D2 control ([2]; D0 to LMW-DS treatment): Activated | upstream regulator BMP4: activation z-score ([2]; D0 to LMW-DS treatment): 0.972 | upstream regulator BMP4: predicted activation state relative D2 control ([2]; D0 to LMW-DS treatment): More activated relative to control | upstream regulator BMP6: activation z-score ([2]; D0 to LMW-DS treatment): 0.13 | upstream regulator BMP6: predicted activation state relative D2 control ([2]; D0 to LMW-DS treatment): More activated relative to control | upstream regulator BMP7: activation z-score ([2]; D0 to LMW-DS treatment): 1.092 | upstream regulator BMP7: predicted activation state relative D2 control ([2]; D0 to LMW-DS treatment): More activated relative to control | upstream regulator INHA: activation z-score ([2]; D0 to LMW-DS treatment): 0.588 | upstream regulator INHA: predicted activation state relative D2 control ([2]; D0 to LMW-DS treatment): More activated relative to control
